Assay results published in patent US7253177B2, “Synthesis and antimalarial activity of pyrrolo[3,2-f]quinazoline-1,3-diamine derivatives” (United States of America as Represented by the Secretary of …, priority 2004, dated 2007).
Converted amounts (≈) assume the structure as drawn. “And” between values parts separate entries of the source, which are not always exact repeats. Equal entries are not always repeated.

Tests used:
P. vivax AMRU-1 strain = assay: Antimalarial activity against P. vivax in Aotus monkey; type: in vivo, Plasmodium vivax; settings: for # Monkey Cured/# Monkey Used, P. vivax: cured = parasitemia free for 100 days post treatment; for outcome against P. vivax at 1 and 3 mg/kg/day x3: po, antifolate-resistant clone with four DHFR mutations
Method: (e). Toxicity Study in Aotus monkey: Protocol: Two malaria double cured Aotus weighing 1027-695 grams respectively received single dose of 3 mg/kg orally of the two compounds 2b and 3e. The monkeys were weighed and pre-bleed for CBC and Chemistry (ALT, BUN, Creatinine) determination, and again three, seven and 15 days post treatment. Signs of toxicity such as anorexia, vomiting, diarrhea or behavior changes were recorded. […] (f). Antimalarial Activity against P. falciparum in Aotus monkey: Protocol: Six (6) malaria naive Aotus lemurinus lemurinus (weigh 787-978 grms) were divided into two groups of two Aotus each plus two controls (MN13177 male and MN 13153 male) and infected with 5×10^6 P. falciparum FVO malaria parasites with 1 ml of an appropriate dilution in RPMI media intravenously on the saphenous vein. When their parasitemia reached 5×10^4 parasites/ul, treatment was started. Giemsa-stained thick blood smears were prepared daily with a prick in the ear marginal vein and parasites enumerated by the Earle and Perez method. Group 1 Aotus received 3e at 1 mg/kg once a day×three days. Group 2 Aotus received 2b at 1 mg/kg once a day×three days. The monkeys were weight and pre-bled for CBC and Chemistry (ALT, BUN, Creatinine) determination, and on day 4 post-treatmetne (PT). Bleedings for Pk determinations were carried out on day 1 PT at time 0, 1 hr, 7:30 hr and 24 hr PT. Group 1 (receiving 3e) animals cleared the parasitemias on day 3 post treatment (PT) and remained negative up to 100 days PT. In group 2 (receiving 2b), one animal cleared on day 3 PT and the other one on day 4 PT remaining negative up to 100 days PT. […] (g). Antimalarial Activity against P. vivax in Aotus monkey: Protocol: Fourteen (14) P. falciparum cured Aotus l. lemurinus monkeys (male and female) (weight 700-925 grms) were infected intravenously with 5×10^6 parasites of the P. vivax AMRU-1 strain diluted in RPMI media obtained from a donor and divided into two larger groups of 6 monkeys each (Group I and Group II) (2 monkeys per dose level), that received 3e and 6 monkeys (2 monkeys per dose level) that received 2b daily at 0.5, 1.0 and 3 mg/kg/day for a total of 3 days. Two monkeys were left has untreated controls. Treatment started when parasitemia reached 5,000 parasites×cc/mm on day 6 PI. Daily food intake was documented. Daily Giemsa-stained thick blood smears were prepared from a prick in the marginal ear vein and parasites enumerated by the Earle and Perez method. The animals were weighed at weekly intervals. Blood samples for Pk determination were collected at the following time points as follows: Day 0: CBC and chemistry panel (ALT. Creatinine and BUN); Day 4: CBC and chemistry Panel. CBC and chemistry panels were done the day prior to first dose and 24 hours after last dose and at weekly intervals thereafter. […] The other monkeys received 1 and 3 mg/kg of 3e remained negative until day 100 PT. In Group II, all monkeys except for one that received 3 mg/kg of 2b failed treatment and were retreated on day 3 PT with 3e at either 0.25, 0.5 or 1 mg/kg for three days. In the monkeys that received re-treatment at 0.25 mg/kg, one cleared on day 4 PT but needed to be treated with Mefloquine on day 8 PT due to a low platelet count. The other animals that had not been cleared by day 6 PT were treated with Mefloquine. […] P. vivax is known to be very drug resistant to antifolates. (h). Presumptive Causal Prophylactic Test against P. cynomolgi in Rhesus monkey: Protocol: […]

[1] = test system: Plasmodium falciparum RCS (Isolates from Brazil); assay: In vitro antimalarial study, [3H]hypoxanthine uptake, RCS clone; type: cell-based; settings: P. falciparum RCS clone
Method: B. Antimalarial Activities: (a). In Vitro Antimalarial Studies. The in vitro assays were conducted by using a modification of the semiautomated microdilution technique of Desjardins et al and Chulay et al.. Four P. falciparum malaria parasite clones, from CDC Indochina III (W-2), CDC Sierra Leone I (D-6), Southeast Asia Isolates (TM91C235) and RCS (Isolates from Brazil) were utilized in susceptibility testing. They were derived by direct visualization and micromanipulation from patient isolates. The W-2 clone is susceptible to mefloquine but resistant to chloroquine, sulfadoxine, pyrimethamine, and quinine, whereas the D-6 clone is naturally resistant to mefloquine but susceptible to chloroquine, sulfadoxine, pyrimethamine and quinine. Test compounds were initially dissolved in DMSO and diluted 400 fold in RPMI 1640 culture medium supplemented with 25 mM Hepes, 32 mM NaHCO3 and 10% Albumax I (Gibco BRL, Grand Island, N.Y.). These solutions were subsequently serially diluted two-fold with a Biomek 1000 (Beckman, Fullerton, Calif.) over 11 different concentrations. The parasites were exposed to serial dilutions of each compound for 48 hrs and incubated at 37° C. with 5% O2, 5% CO2 and 90% N2 prior to the addition of [^3H]hypoxanthine. After a further incubation of 18 hrs, parasite DNA was harvested from each microtiter well using Packard Filtermate 196 Harvester (Meriden, Conn.) onto glass filters. Uptake of [^3H]hypoxanthine was measured with a Packard Topcount Scintillation. Concentration-response data were analyzed by a non-linear regression logistic dose response model and the IC50 values (50% inhibitory concentrations) for each compound were calculated. (Table 3). (b). In Vivo Antimalarial Studies against P. berghei in mice: The in vivo efficacy of the artelinic acid analogs were determined in a modified Thompson test. This test measures the survivability of mice and parasitemia clearance following administration of drug on days 3-5 post infection. In brief, 5×10^6 P. berghei-infected erythrocytes (KBG-173 strain) were inoculated intraperitoneally to female mice that weighed 24-30 g. By day three post-infection, parasitemia ranged from 1.0-3.7%. Each drug, dissolved in 5% sodium bicarbonate, was administered PO twice daily from day 3-5 post-infection. Total doses for each drug ranged from 1.5-384 mg/kg with 8 mice included in each dosage group. The percent suppression of parasitemia in the treated mice compared to the untreated controls was determined for each test compound; the SD-50 (fifty percent suppression dose) and SD-90 were determined from a non-linear regression logistic dose response fit at day 6 parasitemia data. Survival of mice to day 60 post-infection was considered a cure (C). Compounds were considered active (A) when the survival time of the treated mice was greater than twice the control mice, i.e., 12-14 day (Table 4-5). (c). Sporozoite Induced Test Each compound is ground with a mortar & pestle and suspended in 0.5% hydroxyethylcellulose—0.1% Tween 80 for compounds to be administered PO and those given SC are suspended in peanut oil. Each compound is prepared at 3 different dose levels as requested by WRAIR. Compounds are administered either PO or SC to mice once 4 hr before inoculation of sporozoites. Four-week-old male CD-1 mice, purchased from Charles River and weighing 16-17 g, are placed 5 per cage and allowed to acclimate for 4 days before being treated and then inoculated with sporozoites. They are fed food and water ad-lib and maintained at 76° F. with 12 hr light and 12 hr darkness. The cages and water bottles are changed biweekly. The mice are weighed on Days 0, 3 and 6 then biweekly when blood films are taken. Plasmodium yoelii (17×) is used to infect mice that will be used to infect the mosquitoes. Mice are given a single dose of test compound 4 hr before being inoculated intraperitoneally with 2.5×10^5 sporozoites of Plasmodium yoelii on Day 0. […]

Compound | activity against P. vivax at 0.5 and 1 mg/kg x3 (P. vivax AMRU-1 strain) | # Monkey Cured/# Monkey Used, P. vivax (P. vivax AMRU-1 strain; 0.5 mg/kg/day x 3 days) | # Monkey Cured/# Monkey Used, P. vivax (P. vivax AMRU-1 strain; 1 mg/kg/day x 3 days) | # Monkey Cured/# Monkey Used, P. vivax (P. vivax AMRU-1 strain; 3 mg/kg/day x 3 days, 3 mg/kg/day) | outcome against P. vivax at 1 and 3 mg/kg/day x3 (P. vivax AMRU-1 strain) | IC50 RCS [1] [ng/mL] | outcome against P. vivax at 0.5 mg/kg (P. vivax AMRU-1 strain; 0.5 mg/kg/day x 3 days, two monkeys) | # Monkey Cured/# Monkey Used, P. vivax (P. vivax AMRU-1 strain; 3 mg/kg/day x 3 days) | remained negative until day PT (P. vivax AMRU-1 strain; P. vivax, 1 and 3 mg/kg x 3 days) [days] | IC50 ([1]; Plasmodium falciparum) [ng/mL]
CCOC(=O)Nc1nc(NC(=O)OCC)c2c(ccc3c2ccn3Cc2ccccc2C(F)(F)F)n1 [Compound 2b] | not active | 0/2 | 0/2 | one out of two and 1/2 | less active | >250 |  |  |  | 
CC(=O)N(C(C)=O)c1nc(N(C(C)=O)C(C)=O)c2c(ccc3c2ccn3Cc2ccccc2C(F)(F)F)n1 [Compound 3e, 1,3-Bis(diacetylamino)-7-(2-trifluoromethyl)benzyl-7H-pyrrolo[3,2-f]quinazoline] |  | 0/2 | 2/2 |  | cured and 4/4 |  | suppressed the parasitemia but needed re-treatment on day 10 PT | 2/2 | 100 | 0.0236 (≈ 0.0449 nM)
